Read-outs that look alike come from different tables or passages of the source.
Assays:
[1] = molecular target: FAK-RB1 interaction (Homo sapiens, UniProt Q05397); experiment: FAK-RB1 interaction assay (rFAK/rRB1 co-IP ELISA); format: biochemical; conditions: rFAK with 0-10 μM for 1 hr, then rRB1 3 hr
Description: Then, rRB1 was added to mixture and kept at room temperature for 3 hr. The mixture was added to the anti-FAK antibody-coated plated. After extensive washing, the co-IPed rRB1 was detected using an anti-RB1 antibody.

[2] = tested on: ESCC (KYSE520) cells; experiment: WST1 analysis of cisplatin combined with FAK H58 inhibitor, KYSE520; format: cell-based
Description: ESCC (KYSE520) cells were seeded on a 96-well plate at a density of 2000 cells/well in complete medium. The next day, medium was replaced with the serum-reduced medium (5% FBS) containing 0-80 μM of cisplatin and 5 fixed doses of H5 (0 μM, 5 μM, 10 μM, 20 μM, or 40 μM). The cells were kept for 72 hrs. WST1 analysis, a MTT-like assay, was performed to assess proliferation. Log (inhibition) vs. response—variable (four parameters). Prism was utilized to find the best-fit value and to calculate a complete confidence interval.
Synergistic effects of the chemotherapy drug combined with FAK H58 inhibitor. Chemotherapies are commonly used treatments for patients with ESCC. It was sought to determine whether the inhibition of glucose-induced G1-to-S phase transition of the cell cycle coupled with the interruption of DNA synthesis by chemotherapeutic agents is synergistic. ESCC cells (KYSE70 and KYSE520) were cultured in the medium containing reduced FBS (5%), 0-80 μM of cisplatin and 5 fixed doses of H5 (0, 5, 10, 20, or 40 μM) for 72 hr. Cell proliferation was assessed using WST1, a MTT-like reagent.
To assess the synergistic effects of cisplatin coupled with the FAK H58 inhibitor derivative (H5A), ESCC cells (KYSE70 and KYSE520) were treated with 0-80 μM of cisplatin and 5 fixed doses of H5 Å for 72 hr. The H5 derivative H5 Å enhanced the inhibitory effects of cisplatin in KYSE70 from 4 to 2 μM (FIG. 7) and in KYSE520 from 27 to 24 μM (FIG. 8), respectively.

[3] = tested on: TE10 cells; experiment: WST-1 proliferation assay, TE10 cells; format: cell-based; conditions: Homo sapiens, TE-10; medium containing 5% FBS, 48 hr, WST-1 assay; read-out: IC^50, TE10
[4] = tested on: KYSE70; experiment: WST-1 proliferation assay, KYSE70 cells; format: cell-based; conditions: Homo sapiens, KYSE-70; medium containing 5% FBS, 48 hr, WST-1 assay; read-out: IC^50 of H5 on ESCC cells, KYSE70
[5] = tested on: KYSE70 cells; experiment: BrdU coupling ELISA of Glc-induced ESCC cell proliferation; format: cell-based; conditions: Homo sapiens, KYSE-70, serum-free medium containing Glc, BrdU and varied concentrations of inhibitor, read-out: IC^50 on ESCC cell proliferation
Description: (§1) A. Top ranked small molecules that bind to FAK H58 site. B. FAK^His58 inhibitors attenuate Glc-induced phosphorylation of FAK H58. In the absence of growth factors, KYSE70 cells were stimulated by Glc with or without FAK^His58 inhibitors (H5). N=3, **: p<0.001 vs vehicle+Glc. C. Dose responses of FAK^His58 inhibitors on proliferation. KYSE70 cells were incubated in serum-free medium containing Glc, BrdU and varied concentrations of FAK^His58 inhibitors (H5). BrdU coupling ELISA was performed to assess the relative levels of newly synthesized BrdU-DNA. IC^50 values were calculated.
(§2) Reproducible test: BrdU coupling ELISA, pHis-FAK assays and IP/IB were performed to confirm the FAK H58 hit inhibition of ESCC proliferation, phosphorylation of FAK on H58 and FAK-RB1 interaction (FIGS. 2-4).

[6] = tested on: FAK^pHis58; experiment: Glc-induced phosphorylation of FAK H58 in KYSE70 cells; format: cell-based; conditions: KYSE70 cells stimulated by Glc in the absence of growth factors
Description: as §1, §2

[7] = tested on: NME1 (Homo sapiens); experiment: NME1-catalyzed histidine phosphorylation of recombinant FAK (pHis-rFAK ELISA); format: biochemical; conditions: purified NME1 and rFAK, 0-1 μM, 3 hr
Sequence of NME1 (Homo sapiens) (Q05397 whole entry): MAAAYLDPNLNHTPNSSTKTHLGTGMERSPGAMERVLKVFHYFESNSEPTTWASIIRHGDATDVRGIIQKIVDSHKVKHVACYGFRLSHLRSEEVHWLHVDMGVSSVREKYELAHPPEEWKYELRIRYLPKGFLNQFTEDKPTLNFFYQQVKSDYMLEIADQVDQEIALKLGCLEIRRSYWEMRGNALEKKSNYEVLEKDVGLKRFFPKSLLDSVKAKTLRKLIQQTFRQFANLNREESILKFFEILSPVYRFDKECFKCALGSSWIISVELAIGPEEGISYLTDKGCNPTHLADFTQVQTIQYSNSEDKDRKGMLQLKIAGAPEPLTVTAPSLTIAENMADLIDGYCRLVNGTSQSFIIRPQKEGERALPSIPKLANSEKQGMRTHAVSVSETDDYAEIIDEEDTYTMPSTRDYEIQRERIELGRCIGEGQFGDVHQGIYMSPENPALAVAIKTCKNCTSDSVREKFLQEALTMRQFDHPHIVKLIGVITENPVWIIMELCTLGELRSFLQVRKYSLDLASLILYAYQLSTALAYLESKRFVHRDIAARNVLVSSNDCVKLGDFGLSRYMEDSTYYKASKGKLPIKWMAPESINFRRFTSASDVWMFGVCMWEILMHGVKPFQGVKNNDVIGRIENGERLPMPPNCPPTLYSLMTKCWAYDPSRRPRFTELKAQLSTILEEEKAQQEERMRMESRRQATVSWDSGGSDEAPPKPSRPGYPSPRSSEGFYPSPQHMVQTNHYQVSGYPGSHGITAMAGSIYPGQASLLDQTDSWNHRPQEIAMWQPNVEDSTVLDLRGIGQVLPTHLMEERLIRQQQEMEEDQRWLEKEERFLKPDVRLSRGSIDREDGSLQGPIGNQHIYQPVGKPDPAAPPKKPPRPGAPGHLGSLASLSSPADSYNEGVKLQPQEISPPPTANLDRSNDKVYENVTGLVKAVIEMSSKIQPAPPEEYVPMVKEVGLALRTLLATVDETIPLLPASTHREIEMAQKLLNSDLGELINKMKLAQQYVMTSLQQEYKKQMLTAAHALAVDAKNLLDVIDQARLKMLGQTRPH
From the text: A. Assessment of Glc-altered NM1 phosphorylation of pHis-FAK. NME1 was pulldown with an anti-NME1 antibody from KYSE70 cells +/−Glc stimulation and added to the anti-pHis antibody (rabbit)-coated wells. The anti-FAK (mouse) was used to detect the pHis-FAK on the plate. N=3, *: p<0.05, ***: p<0.001 and ****: p<0.0001 vs No NME1 or NME1 (−Glc). B. Glc increases NME1 in xenograft lysates derived from fasting mice +/−Glc. C. H5 attenuates NME1-increased levels of pHis-rFAk. Purified NMR1 and recombinant FAK (rFAK) were incubated in the NME kinase buffer in the presence of varied concentrations (0-1 μM) of vehicle of H5 for 3 hr. The relative levels of pHis-rFAK were assessed using ELISA.

[8] = tested on: TE9; experiment: WST-1 proliferation assay, TE9 cells; format: cell-based; conditions: Homo sapiens, TE-9; medium containing 5% FBS, 48 hr, WST-1 assay; read-out: IC^50 of H5 on ESCC cells, TE9
[9] = tested on: ESCC (KYSE70) cells; experiment: WST1 analysis of cisplatin combined with FAK H58 inhibitor, KYSE70; format: cell-based; conditions: KYSE70, 72 hr
Description: ESCC (KYSE70) cells were seeded on a 96-well plate at a density of 2000 cells/well in complete medium. The next day, medium was replaced with the serum-reduced medium (5% FBS) containing 0-80 μM of cisplatin and 5 fixed doses of H5 (0 μM, 5 μM, 10 μM, 20 μM, or 40 μM). The cells were kept for 72 hrs. WST1 analysis, a MTT-like assay, was performed to assess proliferation. Log (inhibition) vs. response-variable (four parameters). Prism was utilized to find the best-fit value and to calculate a complete confidence interval. […] ESCC (KYSE70) cells were seeded on a 96-well plate at a density of 2000 cells/well in complete medium. The next day, medium was replaced with the serum-reduced medium (5% FBS) containing 0-80 μM of cisplatin and 5 fixed doses of H5 (0 μM, 5 μM, 10 μM, 20 μM, or 40 μM). The cells were kept for 72 hrs. WST1 analysis, a MTT-like assay, was performed to assess proliferation. Log (inhibition) vs. response-variable (four parameters). Prism was utilized to find the best-fit value and to calculate a complete confidence interval. Synergistic effects of the chemotherapy drug combined with FAK H58 inhibitor. Chemotherapies are commonly used treatments for patients with ESCC. […] Cell proliferation was assessed using WST1, a MTT-like reagent. […]

Sequence of FAK-RB1 interaction (Q05397 whole entry): as above

| Effect on FAK-RB1 interaction [1] | Effect on NME1-catalyzed FAK^pHis (pHis-rFAK levels) [7] | Structure (SMILES) | Effect of combination with cisplatin on proliferation ([2]; KYSE520, 72 hr) | IC50 [3] [µM] | IC50 [4] [µM] | IC50 [5] [µM] | Effect on Glc-induced FAK^pHis58 [6] | IC50 [8] [µM] | IC50 ([2]; KYSE520, 5% FBS, 72 hr, before adding H5, read-out: IC50 of cisplatin) [µM] | IC50 ([2]; KYSE520, 5% FBS, 72 hr, fixed doses of H5 (5-40 μM), read-out: IC50 of cisplatin combined with H5) [µM] | IC50 ([2]; KYSE520, 72 hr, before adding H5A, read-out: IC50 of cisplatin (inhibitory effects)) [µM] | IC50 ([2]; KYSE520, 72 hr, fixed doses of H5A, read-out: IC50 of cisplatin combined with H5A) [µM] | IC50 ([9]; before adding H5A, read-out: IC50 of cisplatin (inhibitory effects)) [µM] | IC50 ([9]; fixed doses of H5A, read-out: IC50 of cisplatin combined with H5A) [µM] |
| --- | --- | --- | --- | --- | --- | --- | --- | --- | --- | --- | --- | --- | --- | --- |
| prevents Glc-induced FAK-RB1 interaction | attenuates NME1-catalyzed FAK^pHis | O=c1nc(-c2ccccc2)c(-c2ccccc2)n[nH]1 [H5, 5,6-diphenyl-1,2,4-triazin-3(2H)-one] | enhanced the effects of cisplatin | 0.088 | 5.7 | 9 | decreased Glc-induced FAK^pHis58 | 0.38 |  |  |  |  |  |  |
|  |  | CCOC(=O)CSc1nnc(-c2ccccc2)c(-c2ccccc2)n1 [H5B, ethyl [(5,6-diphenyl-1,2,4-triazin-3-yl)thio]acetate] |  | 0.065 |  |  |  |  |  |  |  |  |  |  |
|  |  | N.N.[Cl][Pt][Cl] [cisplatin] |  |  |  |  |  |  | 31 | 23 | 27 | 24 | 4 | 2 |

— patent publication US20230416209A1, “COMPOUNDS AND METHODS TO TARGET GLUCOSE-STIMULATED PHOSPHOHISTIDINE SIGNALING AND ESOPHAGEAL CANCER GROWTH” (Health Research, Inc., priority 2020, published 2023)
